From PubChem BioAssay AID1259411 (Chemical Carcinogenesis Research Information System (CCRIS), 2018)
Activity calls are given as the source filed them. The rule behind the calls is not given here.

Test system: rodent carcinogenicity bioassays, tumor incidence
Assay: CCRIS carcinogenicity studies
Summary of the method: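 NCI-built, expert-reviewed records of carcinogenicity and related test outcomes (mutagenicity, tumor promotion/inhibition) compiled from published and report sources, historical span 1985-2011, not updated.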

ClC(Cl)=C(Cl)Cl
carcinogen call (Species: MOUSE, Strain/Sex: B6C3F1/FEMALE, Route: GAVAGE, Dose: 0, 386, 772 MG/KG, TWA FOR 78 WKS, Dose: 0, 386, 772 MG/KG, TWA FOR 78 WKS, Tumor Site: Type of Lesion: LIVER: HEPATOCELLULAR CARCINOMA): active; positive
carcinogen call (Species: MOUSE, Strain/Sex: B6C3F1/FEMALE, Route: INHALATION, Dose: 0, 100, 200 PPM 6 HR/D, 5 D/WK FOR 103 WK, Dose: 0, 100, 200 PPM 6 HR/D, 5 D/WK FOR 103 WK, Tumor Site: Type of Lesion: LIVER: HEPATOCELLULAR CARCINOMA, HEPATOCELLULAR ADENOMA OR CARCINOMA): active; positive
carcinogen call (Species: MOUSE, Strain/Sex: B6C3F1/MALE, Route: GAVAGE, Dose: 0, 536, 1072 MG/KG, TWA FOR 78 WKS, Dose: 0, 536, 1072 MG/KG, TWA FOR 78 WKS, Tumor Site: Type of Lesion: LIVER: HEPATOCELLULAR CARCINOMA): active; positive
carcinogen call (Species: MOUSE, Strain/Sex: B6C3F1/MALE, Route: INHALATION, Dose: 0, 100, 200 PPM 6 HR/D, 5 D/WK FOR 103 WK, Dose: 0, 100, 200 PPM 6 HR/D, 5 D/WK FOR 103 WK, Tumor Site: Type of Lesion: LIVER: HEPATOCELLULAR ADENOMA, HEPATOCELLULAR CARCINOMA): active; positive
carcinogen call (Species: RAT, Strain/Sex: F344/FEMALE, Route: INHALATION, Dose: 0, 200, 400 PPM 6 HR/D, 5 D/WK FOR 103 WK, Dose: 0, 200, 400 PPM 6 HR/D, 5 D/WK FOR 103 WK, Tumor Site: Type of Lesion: HEMATOPOIETIC SYSTEM: MONONUCLEAR CELL LEUKEMIA): active; positive
carcinogen call (Species: RAT, Strain/Sex: F344/MALE, Route: INHALATION, Dose: 0, 200, 400 PPM 6 HR/D, 5 D/WK FOR 103 WK, Dose: 0, 200, 400 PPM 6 HR/D, 5 D/WK FOR 103 WK, Tumor Site: Type of Lesion: HEMATOPOIETIC SYSTEM: MONONUCLEAR CELL LEUKEMIA): active; positive

OC1c2cc3c4c(ccc5cccc(c54)C3)c2C2OC2C1O (stereo unspecified)
carcinogen call (Species: MOUSE, Strain/Sex: ICR/FEMALE, Route: INTRAPERITONEAL, Dose: 0, 500 NMOL (TOTAL DOSE) ADMINISTERED IN DOSES OF 1/7, 2/7, AND 4/7 ON DAYS 1, 7, AND 15 OF LIFE, RESPECTIVELY (STUDY DU, Tumor Site: Type of Lesion: LUNG: TUMOR): active; positive
carcinogen call (Species: MOUSE, Strain/Sex: ICR/MALE, Route: INTRAPERITONEAL, Dose: 0, 500 NMOL (TOTAL DOSE) ADMINISTERED IN DOSES OF 1/7, 2/7, AND 4/7 ON DAYS 1, 7 AND 15 OF LIFE , RESPECTIVELY (STUDY DU, Tumor Site: Type of Lesion: LUNG: TUMOR, LIVER: TUMOR): active; positive

O[C@H]1C=Cc2cc3ccc4ccccc4c3nc2[C@@H]1O
carcinogen call (Species: MOUSE, Strain/Sex: SWISS/FEMALE, Route: INTRAPERITONEAL, Dose: 0, 1.05 UMOL GIVEN AS 150 NMOL IN 5 µL DMSO WITHIN 24 HR OF BIRTH, 300 NMOL IN 10 µL DMSO ON D 8 OF LIFE, AND 600 NMOL I, Tumor Site: Type of Lesion: LUNG: ADENOMA): active; positive
carcinogen call (Species: MOUSE, Strain/Sex: SWISS/MALE, Route: INTRAPERITONEAL, Dose: 0, 1.05 UMOL GIVEN AS 150 NMOL IN 5 µL DMSO WITHIN 24 HR OF BIRTH, 300 NMOL IN 10 µL DMSO ON D 8 OF LIFE, AND 600 NMOL I, Tumor Site: Type of Lesion: LUNG: ADENOMA, LIVER: NEOPLASTIC NODULE): active; positive

ClCC(Cl)(Cl)Cl
carcinogen call (Species: MOUSE, Strain/Sex: B6C3F1/FEMALE, Route: GAVAGE, Dose: 0, 250, 500 MG/KG IN CORN OIL, Dose: 0, 250, 500 MG/KG IN CORN OIL, Tumor Site: Type of Lesion: LIVER: HEPATOCELLULAR ADENOMA OR CARCINOMA): active; positive
carcinogen call (Species: MOUSE, Strain/Sex: B6C3F1/MALE, Route: GAVAGE, Dose: 0, 250, 500 MG/KG IN CORN OIL, Dose: 0, 250, 500 MG/KG IN CORN OIL, Tumor Site: Type of Lesion: LIVER: HEPATOCELLULAR ADENOMA): active; positive
carcinogen call (Species: RAT, Strain/Sex: F344/FEMALE, Route: GAVAGE, Dose: 0, 125, 250 MG/KG IN CORN OIL 5 D/WK FOR 103 WK (STUDY DURATION: 103 WK), Dose: 0, 125, 250 MG/KG IN CORN OIL 5 D/WK FOR 103 WK (STUDY DURATION: 103 WK)): inactive; negative
carcinogen call (Species: RAT, Strain/Sex: F344/MALE, Route: GAVAGE, Dose: 0, 125, 250 MG/KG IN CORN OIL 5 D/WK FOR 103 WK (STUDY DURATION: 103 WK), Dose: 0, 125, 250 MG/KG IN CORN OIL 5 D/WK FOR 103 WK (STUDY DURATION: 103 WK), Tumor Site: Type of Lesion: LIVER: NEOPLASTIC NODULE, HEPATOCELLULAR CARCINOMA): equivocal

CCCN(CCC)S(=O)(=O)c1ccc(C(=O)O)cc1
carcinogen call (Species: MOUSE, Strain/Sex: B6C3F1/FEMALE, Route: GAVAGE, Dose: 0, 100, 400 MG/KG IN CORN OIL 5 D/WK FOR 103 WK (STUDY DURATION: 105 WK), Dose: 0, 100, 400 MG/KG IN CORN OIL 5 D/WK FOR 103 WK (STUDY DURATION: 105 WK), Tumor Site: Type of Lesion: LIVER: HEPATOCELLULAR ADENOMA OR CARCINOMA): active; positive
carcinogen call (Species: MOUSE, Strain/Sex: B6C3F1/MALE, Route: GAVAGE, Dose: 0, 100, 400 MG/KG IN CORN OIL 5 D/WK FOR 103 WK (STUDY DURATION: 105 WK), Dose: 0, 100, 400 MG/KG IN CORN OIL 5 D/WK FOR 103 WK (STUDY DURATION: 105 WK)): inactive; negative
carcinogen call (Species: RAT, Strain/Sex: F344/FEMALE, Route: GAVAGE, Dose: 0, 100, 400 MG/KG IN CORN OIL 5 D/WK FOR 103 WK (STUDY DURATION: 104 WK), Dose: 0, 100, 400 MG/KG IN CORN OIL 5 D/WK FOR 103 WK (STUDY DURATION: 104 WK)): inactive; negative
carcinogen call (Species: RAT, Strain/Sex: F344/MALE, Route: GAVAGE, Dose: 0, 100, 400 MG/KG IN CORN OIL 5 D/WK FOR 103 WK (STUDY DURATION: 104 WK), Dose: 0, 100, 400 MG/KG IN CORN OIL 5 D/WK FOR 103 WK (STUDY DURATION: 104 WK)): inactive; negative

NNc1nc(-c2ccc([N+](=O)[O-])o2)cs1
carcinogen call (Species: RAT, Strain/Sex: SPRAGUE-DAWLEY/FEMALE, Route: ORAL, Dose: 0, 0.089% OF DIET FOR 46 WK FOLLOWED BY CONTROL DIET FOR 20 WK FOR A TOTAL DOSE OF 0, 4.2 G (STUDY DURATION: 66 WK), Dose: 0, 0.089% OF DIET FOR 46 WK FOLLOWED BY CONTROL DIET FOR 20 WK FOR A TOTAL DOSE OF 0, 4.2 G (STUDY DURATION: 66 WK), Tumor Site: Type of Lesion: MAMMARY GLAND: ADENOCARCINOMA, MAMMARY GLAND: ADENOFIBROMA OR FIBROADENOMA): active; positive

Cc1cc(-c2ccccc2C)ccc1N=O
carcinogen call (Species: HAMSTER, Strain/Sex: SYRIAN/FEMALE, Route: SUBCUTANEOUS, Dose: 0.15 MMOL/KG IN PEANUT OIL 1/WK FOR 37 WK (TOTAL DOSE 5.6 MMOL/KG), Tumor Site: Type of Lesion: INJECTION SITE: RHABDOMYOSARCOMA, SPINDLE CELL CARCINOMA, PLEIOMORPHIC SARCOMA): active; positive
carcinogen call (Species: HAMSTER, Strain/Sex: SYRIAN/MALE, Route: SUBCUTANEOUS, Dose: 0.15 MMOL/KG IN PEANUT OIL 1/WK FOR 37 WK (TOTAL DOSE 5.6 MMOL/KG), Tumor Site: Type of Lesion: INJECTION SITE: RHABDOMYOSARCOMA, PLEIOMORPHIC SARCOMA): active; positive

Cc1ccc(N=Nc2c(O)ccc3ccccc23)c([N+](=O)[O-])c1
carcinogen call (Species: MOUSE, Strain/Sex: B6C3F1/FEMALE, Route: ORAL, Dose: 0, 12500, 25000, 50000 PPM IN FEED FOR 2 YR (STUDY DURATION: 2 YR), Dose: 0, 12500, 25000, 50000 PPM IN FEED FOR 2 YR (STUDY DURATION: 2 YR)): inactive; negative
carcinogen call (Species: MOUSE, Strain/Sex: B6C3F1/MALE, Route: ORAL, Dose: 0, 12500, 25000, 50000 PPM IN FEED FOR 2 YR (STUDY DURATION: 2 YR), Dose: 0, 12500, 25000, 50000 PPM IN FEED FOR 2 YR (STUDY DURATION: 2 YR), Tumor Site: Type of Lesion: KIDNEY (CORTEX): ADENOMA, THYROID GLAND (FOLLICULAR CELL): ADENOMA): active; positive
carcinogen call (Species: RAT, Strain/Sex: F344/FEMALE, Route: ORAL, Dose: 0, 6000, 12500, 25000 PPM IN FEED FOR 2 YR (STUDY DURATION: 2 YR), Dose: 0, 6000, 12500, 25000 PPM IN FEED FOR 2 YR (STUDY DURATION: 2 YR), Tumor Site: Type of Lesion: LIVER: HEPATOCELLULAR ADENOMA): active; positive
carcinogen call (Species: RAT, Strain/Sex: F344/MALE, Route: ORAL, Dose: 0, 6000, 12500, 25000 PPM IN FEED FOR 2 YR (STUDY DURATION: 2 YR), Dose: 0, 6000, 12500, 25000 PPM IN FEED FOR 2 YR (STUDY DURATION: 2 YR), Tumor Site: Type of Lesion: ADRENAL MEDULLA: PHEOCHROMOCYTOMA (BENIGN OR MALIGNANT)): active; positive

CCC(CC)[N+](=O)[O-]
carcinogen call (Species: RAT, Strain/Sex: F344/MALE, Route: GAVAGE, Dose: 0, 2 MMOL/KG BW 1/WK FOR 12 WK THEN 1 MMOL/KG FOR 38 WK (STUDY DURATION: 83 WK), Tumor Site: Type of Lesion: LIVER: CARCINOMA): active; positive
